This assay relates to BDF1 mice, colon carcinoma 38 sc, T/C %. Kind of assay: NCI In Vivo Anticancer Drug Screen. Data for tumor model Colon Carcinoma 38 (subcutaneous) in B6D2F1 (BDF1) mice. The note with it: endpoint: median tumor weight (est.), higher = larger tumour. In outline:
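Mice with transplanted tumors are treated with compound or vehicle. Survival or tumor size is then measured in both groups. The ratio of treated to control gives the reported figure.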

Setting [1] is: dose: 200.0 mg/kg/injection, schedule: Q07DX002 (ip), vehicle: saline with Tween-80.
Setting [2] is: dose: 12.5 mg/kg/injection, schedule: Q07DX002 (ip), vehicle: saline.
Where [3] appears, read: dose: 25.0 mg/kg/injection, schedule: Q07DX002 (ip), vehicle: saline.
Setting [4] is: dose: 50.0 mg/kg/injection, schedule: Q07DX002 (ip), vehicle: saline.
The mark [5] stands for this setting: dose: 100.0 mg/kg/injection, schedule: Q07DX002 (ip), vehicle: saline.
Where [6] appears, read: dose: 200.0 mg/kg/injection, schedule: Q07DX002 (ip), vehicle: saline.
Setting [7] is: dose: 400.0 mg/kg/injection, schedule: Q07DX002 (ip), vehicle: saline.
The mark [8] stands for this setting: dose: 25.0 mg/kg/injection, schedule: Q07DX002 (ip), vehicle: suspension in saline.
Setting [9] is: dose: 25.0 mg/kg/injection, schedule: Q07DX002 (ip), vehicle: water.
The mark [10] stands for this setting: dose: 50.0 mg/kg/injection, schedule: Q07DX002 (ip), vehicle: water.

Several values for one entry are separate records, joined by “and”; a condition that tells them apart may be missing. Identical values can stand only once. Inconclusive results are not listed.

On to `CC(=O)OCC1(C)NC(=O)c2ccccc2O1` (centres undefined), for which the T/C is 54 % of control (dose: 56.2 mg/kg/injection, schedule: Q07DX002 (ip), vehicle: saline with Tween-80); 98 % of control (dose: 100.0 mg/kg/injection, schedule: Q07DX002 (ip), vehicle: saline with Tween-80); 62 % of control (dose: 112.5 mg/kg/injection, schedule: Q07DX002 (ip), vehicle: saline with Tween-80); 109 % of control under setting [1]; 69 % of control (dose: 225.0 mg/kg/injection, schedule: Q07DX002 (ip), vehicle: saline with Tween-80); 153 % of control (dose: 400.0 mg/kg/injection, schedule: Q07DX002 (ip), vehicle: saline with Tween-80). Further, the T/C is, setting by setting: (dose: 450.0 mg/kg/injection, schedule: Q07DX002 (ip), vehicle: saline with Tween-80) 48 % of control; (dose: 900.0 mg/kg/injection, schedule: Q07DX002 (ip), vehicle: saline with Tween-80) 48 % of control.

As to `Nc1nncs1`, the T/C is, setting by setting: under setting [2], 71 % of control; under setting [3], 114 % of control; under setting [4], 78 % of control; (dose: 50.0 mg/kg/injection, schedule: Q07DX003 (ip), vehicle: saline) 74 % of control; under setting [5], 68 % of control; (dose: 100.0 mg/kg/injection, schedule: Q07DX003 (ip), vehicle: saline) 78 % of control and 79 % of control. In addition, the T/C by setting is: under setting [6], 53 % of control; (dose: 200.0 mg/kg/injection, schedule: Q07DX003 (ip), vehicle: saline) 58 % of control and 74 % of control; under setting [7], 65 % of control; (dose: 400.0 mg/kg/injection, schedule: Q07DX003 (ip), vehicle: saline) 35 % of control and 38 % of control; (dose: 800.0 mg/kg/injection, schedule: Q07DX003 (ip), vehicle: saline) 51 % of control and 53 % of control.

As for `Nc1nc(/C=C(/O)c2ccccc2)c2ncn(C3OC(CO)C(O)C3O)c2n1` (centres undefined), the T/C reads like this: (dose: 12.5 mg/kg/injection, schedule: Q07DX002 (ip), vehicle: distilled water + Tween-80) 100 % of control; under setting [2], 120 % of control; (dose: 25.0 mg/kg/injection, schedule: Q07DX002 (ip), vehicle: distilled water + Tween-80) 85 % of control; under setting [3], 87 % of control; under setting [4], 89 % of control; (dose: 100.0 mg/kg/injection, schedule: Q07DX002 (ip), vehicle: distilled water + Tween-80) 110 % of control. Further, the T/C is 99 % of control under setting [5] and 120 % of control under setting [6].

In the case of `CCCCc1ccc2nc(NC(=O)OC)[nH]c2c1`, the T/C is 114 % of control (dose: 12.5 mg/kg/injection, schedule: Q07DX002 (ip), vehicle: saline with Tween-80); 83 % of control (dose: 25.0 mg/kg/injection, schedule: Q07DX002 (ip), vehicle: saline with Tween-80); 98 % of control (dose: 50.0 mg/kg/injection, schedule: Q07DX002 (ip), vehicle: saline with Tween-80); 87 % of control under setting [1].

On to `CS(=O)(=O)OCCN(CCOS(C)(=O)=O)c1ccc(C=Nc2ccc(-c3csc(COc4ccccc4)n3)cc2)cc1`, for which the T/C by setting is: (dose: 50.0 mg/kg/injection, schedule: Q07DX002 (ip), vehicle: Klucel (hydroxypropylcellulose) (HPC)) 158 % of control; (dose: 200.0 mg/kg/injection, schedule: Q07DX002 (ip), vehicle: Klucel (hydroxypropylcellulose) (HPC)) 97 % of control and 100 % of control; (dose: 400.0 mg/kg/injection, schedule: Q07DX002 (ip), vehicle: Klucel (hydroxypropylcellulose) (HPC)) 46 % of control.

With `Cc1c2cc[n+](CCN3CCCCC3)cc2c(C)c2c1[nH]c1ccc(O)cc12`, the T/C by setting is: (dose: 3.12 mg/kg/injection, schedule: Q07DX002 (ip), vehicle: saline) 36 % of control; (dose: 3.12 mg/kg/injection, schedule: Q07DX002 (ip), vehicle: suspension in saline) 100 % of control; (dose: 6.25 mg/kg/injection, schedule: Q07DX002 (ip), vehicle: saline) 53 % of control and 61 % of control; (dose: 6.25 mg/kg/injection, schedule: Q07DX002 (ip), vehicle: suspension in saline) 104 % of control; (dose: 12.5 mg/kg/injection, schedule: Q07DX002 (ip), vehicle: suspension in saline) 86 % of control; under setting [3], 39 % of control and 64 % of control. Further, the T/C is, setting by setting: under setting [8], 69 % of control; (dose: 50.0 mg/kg/injection, schedule: Q07DX002 (ip), vehicle: suspension in saline) 39 % of control; under setting [5], 36 % of control and 47 % of control.

For `NC(=O)c1c[se]c(C2OC(CO)C(O)C2O)n1` (centres undefined), the T/C is 56 % of control under setting [9]; 79 % of control under setting [4]; 74 % of control under setting [10]; 89 % of control under setting [5]; 44 % of control (dose: 100.0 mg/kg/injection, schedule: Q07DX002 (ip), vehicle: water); 73 % of control under setting [6]. Besides, the T/C was 42 % of control (dose: 200.0 mg/kg/injection, schedule: Q07DX002 (ip), vehicle: water); 74 % of control under setting [7]; 40 % of control (dose: 400.0 mg/kg/injection, schedule: Q07DX002 (ip), vehicle: water); 90 % of control (dose: 800.0 mg/kg/injection, schedule: Q07DX002 (ip), vehicle: saline).

`CN(Cc1cnc2nc(N)nc(N)c2n1)c1ccc(C(=O)N[C@@H](CCC(=O)O)C(=O)O)cc1`: the T/C reads like this: (dose: 1.25 mg/kg/injection, schedule: Q07DX002 (ip), vehicle: sodium bicarbonate) 105 % of control; (dose: 2.5 mg/kg/injection, schedule: Q07DX002 (ip), vehicle: sodium bicarbonate) 167 % of control and 170 % of control; (dose: 5.0 mg/kg/injection, schedule: Q07DX002 (ip), vehicle: sodium bicarbonate) 122 % of control; (dose: 10.0 mg/kg/injection, schedule: Q07DX002 (ip), vehicle: sodium bicarbonate) 111 % of control; (dose: 20.0 mg/kg/injection, schedule: Q07DX002 (ip), vehicle: sodium bicarbonate) 115 % of control and 117 % of control.

Regarding `Nc1nc(F)nc2c1ncn2C1OC(COP(=O)(O)O)C(O)C1O` (centres undefined), the T/C under setting [2] was 184 % of control; the T/C under setting [4] is 87 % of control; the T/C under setting [5] was 116 % of control and 93 % of control; the T/C under setting [6] is 82 % of control and 101 % of control; the T/C under setting [7] was 76 % of control and 83 % of control.

In the case of `O=C(C#Cc1ccccc1)c1ccccc1`, the T/C by setting is: (dose: 3.12 mg/kg/injection, schedule: Q07DX002 (ip), vehicle: Klucel (hydroxypropylcellulose) (HPC)) 73 % of control; (dose: 3.12 mg/kg/injection, schedule: Q07DX002 (ip), vehicle: water) 106 % of control; (dose: 6.25 mg/kg/injection, schedule: Q07DX002 (ip), vehicle: water) 77 % of control; (dose: 12.5 mg/kg/injection, schedule: Q07DX002 (ip), vehicle: Klucel (hydroxypropylcellulose) (HPC)) 83 % of control; (dose: 12.5 mg/kg/injection, schedule: Q07DX002 (ip), vehicle: water) 110 % of control; (dose: 25.0 mg/kg/injection, schedule: Q07DX002 (ip), vehicle: Klucel (hydroxypropylcellulose) (HPC)) 101 % of control. Also, the T/C was 117 % of control under setting [9] and 54 % of control under setting [10].

Regarding `CC(C)NCC(O)COc1cccc2ccccc12` (centres undefined), the T/C (dose: 4.0 mg/kg/injection, schedule: Q07DX002 (ip), vehicle: Klucel (hydroxypropylcellulose) (HPC)) is 122 % of control; the T/C (dose: 8.0 mg/kg/injection, schedule: Q07DX002 (ip), vehicle: Klucel (hydroxypropylcellulose) (HPC)) was 100 % of control; the T/C (dose: 64.0 mg/kg/injection, schedule: Q07DX002 (ip), vehicle: Klucel (hydroxypropylcellulose) (HPC)) is 88 % of control.

`CC1=CC(=NN=c2cc(C)n([O-])c(C)c2)C=C(C)[N+]1=O`: the T/C is, setting by setting: under setting [2], 82 % of control; under setting [3], 108 % of control; under setting [8], 123 % of control; under setting [4], 73 % of control; (dose: 100.0 mg/kg/injection, schedule: Q07DX002 (ip), vehicle: suspension in saline) 97 % of control; under setting [6], 99 % of control. Also, the T/C was 121 % of control (dose: 200.0 mg/kg/injection, schedule: Q07DX002 (ip), vehicle: suspension in saline); 90 % of control under setting [7]; 98 % of control (dose: 400.0 mg/kg/injection, schedule: Q07DX002 (ip), vehicle: suspension in saline).

On to `COC1C(/C=C/C(C)=O)OC2OC(C)(C)OC21` (centres undefined), for which the T/C under setting [5] is 114 % of control and 98 % of control.
